# Publication PMC4492764, “Evaluation of biomarkers for in vitro prediction of drug-induced nephrotoxicity: comparison of HK-2, immortalized human proximal tubule epithelial, and primary cultures of human proximal tubular cells” (Pharmacology Research & Perspectives, 2015)
# Counter-ions that a name gives are not always drawn.
# What was measured:
# M-CSF mRNA = M-CSF mRNA qRT-PCR in HK-2 cells; format: cell-based, human; parameters: key to Upregulation of M-CSF HK-2 R: +: statistically significant increase; −: no significant increase; settings: for Upregulation of M-CSF HK-2 R: mRNA levels, 72 h time point
# Method: Hs00273334_m1), Lcn2 (NGAL; Hs01008571_m1), and Csf1 (M-CSF; Hs00174164_m1). All probes span an exon-exon junction. The real-time quantitative reverse transcription PCR (qRT-PCR) was performed in a 10 μl final reaction mixture using a ViiA 7TM system (Applied Biosystems®, Sydney, NSW, Australia) based on the following thermo cycling conditions: 10 min at 95°C for one cycle, 15 sec at 95°C, 60 sec at 60°C for 40 cycles. The ViiA 7TM software was used for data analysis with Hprt1 expression used for normalization. All assays were performed at least three times, with at least two technical replicates in each assay.
# M-CSF [1] = experiment: M-CSF protein ELISA in hRPTECs; format: cell-based, human; parameters: key: +: statistically significant increase; −: no significant increase; settings: protein levels in culture medium; 72 h time point
# Method: (§1) Sandwich-ELISA experiments were conducted following the manufacturer's instructions with slight modifications. A 96-well microplate (MaxiSorp®, Nunc, Thermo Scientific, NSW, Australia) was coated with 100 μL of capture antibodies (diluted 1:200 in PBS) and incubated overnight. The plate was then washed twice with washing buffer (0.05% Tween 20 in PBS, pH 7.4) and blocked by adding 300 μL of blocking buffer (1% bovine serum albumin (BSA) in PBS) for 1 h at room temperature. After washing two times with PBS, 100 μL of samples (cell culture media or cell lysates) or standards were then added to each well and incubated for 2 h at room temperature. The biotinylated detection antibodies were then diluted in blocking buffer, added to each well and incubated for 2 h. Horseradish peroxidase (HRP)-labeled streptavidin (100 μL) was then added to bind to detection antibodies. To each well, 100 μL of substrate solution (1:1 mixture of H2O2 and tetramethylbenzidine) was added and incubated for 20 min before reaction termination with 50 μL of stop solution (2N H2SO4). The optical density of each well was measured at 450 nm using a POLARstar Omega plate reader (BMG Labtech). All assays were performed at least three times, with at least two technical replicates in each assay.
# M-CSF [2] = test system: M-CSF; parameters: key: +: statistically significant increase; −: no significant increase; settings: published in vivo data; ref Razzaque and Taguchi [2002]; Menke et al. [2009]; cited from earlier work
# M-CSF [3] = experiment: M-CSF protein ELISA in HK-2 cells; format: cell-based, human; parameters: key: +: statistically significant increase; −: no significant increase; settings: protein levels in culture medium; 72 h time point
# Method: as §1
# KIM-1 = settings: published in vivo data; ref Vaidya et al. [2006]; cited from earlier work
# [4] = MTT cytotoxicity assay in HK-2 cells; format: cell-based, human; settings: human, HK-2 cells; 72 h incubation; Mean ± Standard deviation, n = 3
# Method: (§2) For the MTT assay, the medium was then removed, the dried crystals were resuspended in 60 μL of Dimethyl sulfoxide (DMSO), and the absorbance was read at 570 nm. For the resazurin assay, the fluorescence intensity was read using a PolarStar Omega plate reader (BMG Labtech; Mornington VIC, Australia) at excitation/emission 560/590 nm. All assays were performed at least three times. […] La Jolla, CA). Both MTT and resazurin assays were performed three times, with two technical replicates in each assay.
# [5] = MTT cytotoxicity assay in hRPTECs; format: cell-based, human; settings: human, hRPTECs (passage 2); 72 h incubation; Mean ± Standard deviation, n = 3
# Method: as §2
# [6] = Resazurin cytotoxicity assay in hRPTECs; format: cell-based, human; settings: human, hRPTECs (passage 2); 72 h incubation; Mean ± Standard deviation, n = 3
# Method: as §2
# [7] = Resazurin cytotoxicity assay in HK-2 cells; format: cell-based, human; settings: human, HK-2 cells; 72 h incubation; Mean ± Standard deviation, n = 3
# Method: as §2
# HK-2 cells [8] = experiment: Resazurin cytotoxicity assay in HK-2 cells; format: cell-based, human
# Method: as §2
# HK-2 cells [9] = experiment: MTT cytotoxicity assay in HK-2 cells; format: cell-based, human; settings: 72 h incubation; Mean ± Standard deviation, n = 3
# Method: as §2
# hRPTECs = experiment: MTT cytotoxicity assay in hRPTECs; format: cell-based, human; settings: 72 h incubation; Mean ± Standard deviation, n = 3
# Method: as §2
Molecule,"M-CSF mRNA level in HK-2 cells (M-CSF mRNA; 72 h exposure, P < 0.005)",Upregulation of M-CSF HK-2 R (M-CSF mRNA),Upregulation of M-CSF hRPTECs P (M-CSF [1]),Upregulation of M-CSF in vivo (M-CSF [2]),Upregulation of M-CSF HK-2 P (M-CSF [3]),Upregulation of KIM-1 in vivo (KIM-1),CC50 at 72 h [4] [µM],CC50 at 72 h [5] [µM],CC50 at 72 h [6] [µM],CC50 at 72 h [7] [µM],"toxicity in resazurin assay at highest concentration tested (HK-2 cells [8]; 72 h, highest concentrations gentamicin 1 mmol/L, CsA 50 μmol/L, cell type not given)",CC50 (HK-2 cells [9]) [µM],CC50 (hRPTECs) [µM],"CC50 (HK-2 cells [8]; 72 h incubation, Mean ± Standard deviation, n = 3) [µM]"
"N.N.[Cl][Pt][Cl] [Cisplatin, cisplatin]",clearly increased,+,+,+ (Razzaque and Taguchi [2002]; Menke et al. [2009]),−,>5-fold (Vaidya et al. [2006]),,,,,,,,
"CNC(C)C1CCC(N)C(OC2C(N)CC(N)C(OC3OCC(C)(O)C(NC)C3O)C2O)O1 (centres unmarked) [Gentamicin, gentamicin sulfate]",,,,,,,> 1000,> 1000,> 1000,> 1000,no toxicity,,,
Colistin sulfate,,−,−,,−,,,,,,,> 300,> 300,> 300
